According to patent publication US20040042961A1, “Development of an in vivo functional assay for proteases” (priority 2002, published 2004):
Entries after “also recorded” stand apart in the source; their conditions may differ. Residues, ends and D or L forms follow the SMILES beside them. *: point of attachment. Cbz = O=C(OCc1ccccc1)*; CHN2 = [N-]=[N+]=C*; CH2F = FC*

Experiments:
[1] = biological target: T1, caspase 8 (Homo sapiens, UniProt Q14790); assay: Cell-based assay for caspase 8 in Jurkat cells (GFP double mutant, anti-Fas Ab, guanidine-HCl)
T1 construct: endogenous in cells; host or cells: Jurkat-rtTA cells
Description: Two factors are particularly important for the successful conversion of GFP into a preferred protease substrate: (i) the cleavage of the accessible substrate recognition sequence and (ii) the susceptibility of the cleaved GFP relative to the intact (non-cleaved) GFP towards unfolding. In the present work, it was preferred to introduce two cleavage sites in order to sufficiently destabilize GFP so that rapid unfolding could be observed at pH 5.5 in vitro. This is represented by a Scheme in FIG. 6. FIG. 6 is a graphical depiction of fluorescence as a function of the duration of exposure to guanidine-HCl. The assay was performed in Jurkat cells, using an anti-Fas Ab for caspase 8 activation. The assay is run in a 96-well plate format, using the Cytofluor plate reader. […] Without addition of Guanidine-HCl, no change in fluorescence was observed. However, a functional cellular assay (i.e. with a fluorescence readout) was obtained by incubating the cells with the denaturing agent Guanidine-HCl prior to analysis.
Without addition of Guanidine-HCl, no change in fluorescence is observed. However, a functional cellular assay (i.e. with a fluorescence readout) was obtained by incubating the cells with the denaturing agent Guanidine-HCl prior to analysis (FIG. 6).
The assay was performed in Jurkat cells and the GFP substrate was delivered by means of transient transfection. […]

[2] = biological target: T2, cathepsin L (Homo sapiens, UniProt P07711); assay: Intracellular cathepsin L assay, wild type preprocathepsin L-GFP in HeLa-rtTA cells, FACS; assay type: cell-based; details: 48 h
T2 construct: The C-terminus of the full length human preprocathepsin L is fused in frame to the N-terminus of GFP; GFP (Aequorea victoria, F64L/S65C/I167T/K238N) via BglII-NheI linker (C); expressed in transfected cells
T2 sequence (P07711 18-333 limits assumed): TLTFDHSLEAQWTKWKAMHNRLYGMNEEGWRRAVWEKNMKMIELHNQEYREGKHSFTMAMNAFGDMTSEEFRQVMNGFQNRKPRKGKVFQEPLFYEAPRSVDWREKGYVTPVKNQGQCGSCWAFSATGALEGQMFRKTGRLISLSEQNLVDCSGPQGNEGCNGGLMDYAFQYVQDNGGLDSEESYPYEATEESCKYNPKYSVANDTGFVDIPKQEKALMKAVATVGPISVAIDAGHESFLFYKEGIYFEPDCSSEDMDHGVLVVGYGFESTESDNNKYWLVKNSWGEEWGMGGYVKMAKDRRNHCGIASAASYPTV
Protocol: (§1) A potent cathepsin L irreversible inhibitor, Cbz-LeuLeuTyr-CHN2, was also used in this experiment. To induce cathepsin L-GFP expression, the cells were cultured in the presence of doxycycline for 48 h. […] Fluorescence that corresponds to GFP, however, is found in the peaks at higher fluorescence levels (FIGS. 13B,C). This can be observed in all cell populations expressing GFP. […] In the absence of inhibitor, the active enzyme hydrolyzes most of the GFP substrate, resulting in low fluorescence levels. […] It must be noted also that the low level of cellular fluorescence increases slightly in presence of the inhibitor, possibly due to effects on cellular events.
(§2) FIG. 13 Characterization of GFP fluorescence by FACS analysis. Expression of GFP fusion proteins was induced in the presence or absence of Z-Leu-Leu-Tyr-CHN2 inhibitor for 48 h, and the fluorescence was measured by FACS . Panel A. The fluorescence histograms of non-30 transfected HeLa-rtTA cells, cultured in absence (shaded) or in presence of 35 μM inhibitor (superimposed). A shift of the superimposed histogram depicts an increase of the background fluorescence in response to the inhibitor (see text for more details). Panel B. The fluorescence histograms of cells expressing the mutant preprocathepsin L-GFP (C25A) fusion protein, grown in absence (shaded) and in presence (superimposed) of 35 μM inhibitor. Panel C. […]

[3] = tested on: HeLa-rtTA cells; assay: Cell viability, MTT dye reduction assay; assay type: cell-based; details: 48 h; for Effect on cell viability: 0-60 μM, wild type and mutant fusion cells; for Cell viability: 60 μM
Protocol: (§3) FIG. 15 Adaptation of the intracellular assay to a high-throughput screening format. The assay was carried out in a 96-well microplate and fluorescence was measured using the Cytofluor. The expression of GFP fusion proteins was induced for 48 h in the presence of several inhibitors. Cell viability was determined using the MTT dye reduction assay. The average of triplicate values and the standard deviation for fluorescence and cell viability were expressed as a function of inhibitor concentration. Panel A. Relative fluorescence (fold/control) of cells expressing the wild-type preprocathepsin L-GFP fusion protein treated with various inhibitors. Panel B. The relative fluorescence of cells expressing the mutant preprocathepsin L-GFP (C25A) fusion protein in response to treatment with several inhibitors. Panel C. Percentage of viable cells expressing the wild type fusion protein after treatment with inhibitors. Panel D. The percentage of viable cells expressing the mutant fusion protein as described in Panel C.
Cell Viability Assay—The number of viable cells was evaluated by the MTT dye reduction assay with modification (24). In the presence of various concentrations of inhibitors, cells were grown in 96-well plates for 48 h. MTT reagent was then added to a final concentration of 0.5 mg/ml, and incubation at 37° C. in 5% CO2 was continued for 4 h. The resulting insoluble formazan crystals were solubilized by resuspending the cells in 100 μl of DMSO per well. Absorbance of converted dye was measured at 550/690 nm on SpectraMAX 250 (Molecular Devices). Assay values obtained from control cells were taken as 100%.

[4] = biological target: T2, cathepsin L; assay: Intracellular cathepsin L assay, wild type preprocathepsin L-GFP in HeLa-rtTA cells, 96-well plate reader; assay type: cell-based; details: 48 h; for Effect on overall level of GFP fluorescence: 0-60 μM
Protocol: (§4) Adaptation of the assay to a 96-well plate format—The intracellular assay was performed in a 96-well microplate format using a plate reader to monitor GFP fluorescence. Three different inhibitors were used for the plate assay: Cbz-LeuLeuTyr-CHN2, Cbz-LeuLeuTyr-CH2F and E-64. These compounds are all irreversible inhibitors of cysteine proteases. Prior to measuring the fluorescence, the stably transfected pools of HeLa-rtTA cells were induced with doxycycline and cultured in presence of various concentrations of the inhibitors for 48 h.
as §3, with “Panel D. The percentage of viable cells expressing the mutant fusion protein as described in Panel C.” left out
Proteolytic Assays—For in vitro assays, purified GFP-His protein (100 μg) was incubated with 400 nM cathepsin L for 4.5 h. Aliquots were analyzed periodically to monitor the fluorescence using a CytoFluor plate reader (PerSeptive Biosystems, Framingham, Mass.) with cut-off filters of 488 nm (excitation) and […] (emission). […] For cell-based assays, stably transfected HeLa cells (stable pools) of either wild type cathepsin L-GFP or mutant cathepsin L-GFP fusions were grown in presence or absence of cathepsin inhibitors, and GFP fluorescence was monitored with various detection methods. […] Cells from one set of plates were harvested by trypsinization, resuspended in PBS, and GFP fluorescence was subsequently determined with flow cytometry. […] The cells were grown for an additional 24 h and GFP fluorescence was measured as described above. For detection with the CytoFluor plate reader, cells (400,000 cells/ml) in a total volume of 250 μl per well, were cultured in 96-well microplates. […] After the removal of medium, 200 μl of PBS was added to each well and the plates were scanned to monitor GFP fluorescence. Background fluorescence was determined from negative control cells (-doxycycline), and was subtracted from the fluorescence values obtained from induced cells that were cultured with various concentrations of inhibitors.

[5] = biological target: T3, non-active preprocathepsin L (C25A) mutant (Homo sapiens, UniProt P07711, C138A); assay: Control, mutant preprocathepsin L-GFP (C25A) in HeLa-rtTA cells, 96-well plate reader; assay type: cell-based; details: 0-60 μM, 48 h
T3 construct: The C-terminus of the full length human preprocathepsin L is fused in frame to the N-terminus of GFP; GFP (Aequorea victoria, F64L/S65C/I167T/K238N) via BglII-NheI linker (C); expressed in transfected cells
Protocol: as §4
as §3, with “Percentage of viable cells expressing the wild type fusion protein after treatment with inhibitors. Panel D. The percentage of viable cells expressing the mutant fusion protein as described in Panel C.” left out

[6] = biological target: T3, non-active preprocathepsin L (C25A) mutant; assay: Control, mutant preprocathepsin L-GFP (C25A) in HeLa-rtTA cells, FACS; assay type: cell-based; details: inactive cathepsin L (C25A), up to 35 μM inhibitor, 48 h
Protocol: as §1, §2

T3 sequence (P07711 114-333 C138A): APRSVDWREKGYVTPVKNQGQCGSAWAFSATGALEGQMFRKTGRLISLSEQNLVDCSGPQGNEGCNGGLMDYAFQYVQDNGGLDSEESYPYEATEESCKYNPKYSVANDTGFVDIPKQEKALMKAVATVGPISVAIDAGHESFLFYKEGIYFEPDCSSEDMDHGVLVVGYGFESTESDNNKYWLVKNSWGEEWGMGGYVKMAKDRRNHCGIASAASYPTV
T1 sequence (Q14790 217-374 limits assumed): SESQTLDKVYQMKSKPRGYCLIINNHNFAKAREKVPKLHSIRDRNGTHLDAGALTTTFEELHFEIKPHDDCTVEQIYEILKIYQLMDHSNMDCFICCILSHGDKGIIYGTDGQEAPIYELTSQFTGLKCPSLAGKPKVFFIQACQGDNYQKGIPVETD
T1 sequence (Q14790 385-479 limits assumed): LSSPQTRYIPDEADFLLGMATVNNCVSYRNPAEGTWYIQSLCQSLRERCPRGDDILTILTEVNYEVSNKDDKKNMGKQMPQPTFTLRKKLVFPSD

| Response of fluorescence with inhibitor concentration ([1]; Fas-dependent hydrolysis of GFP, guanidine-HCl before reading) | Hydrolysis of GFP mutant in response to Fas-induced apoptosis ([1]; Jurkat-rtTA cells, Western with polyclonal anti-GFP Ab) | GFP fluorescence ([2]; 35 μM inhibitor, doxycycline) | Increase of fluorescence (fluorescence index) ([2]; inhibitor concentration increased from 0 to 35 μM) | Effect on overall level of GFP fluorescence [4] | Fluorescence increase relative to control cells without inhibitor ([4]; 60 μM) [fold] | Fluorescence of cells expressing mutant non-active fusion protein [5] | Compound | Effect on cell viability [3] | Cell viability [3] | GFP fluorescence [6] |
| --- | --- | --- | --- | --- | --- | --- | --- | --- | --- | --- |
| dose-dependent response | inhibited | – | – | – | – | – | COC(=O)C[C@H](NC(=O)[C@H](C)NC(=O)[C@@H](NC(=O)OCc1ccccc1)C(C)C)C(=O)CF [Z-VAD-FMK] (Cbz-Val-Ala-Asp(OMe)-CH2F) | – | – | – |
| – | – | significant increase | up to 5 fold | dose-dependent increase | 20 | small increase | CC(C)C[C@H](NC(=O)OCc1ccccc1)C(=O)N[C@@H](CC(C)C)C(=O)N[C@@H](Cc1ccc(O)cc1)C(=O)C=[N+]=[N-] [Cbz-LeuLeuTyr-CHN2] (Cbz-Leu-Leu-Tyr-CHN2) | inversely proportional to the inhibitor concentration | approximately 50% | virtually no change; also recorded: remained unchanged |
| – | – | – | – | no significant effect | – | – | CC(C)C[C@H](NC(=O)OCc1ccccc1)C(=O)N[C@@H](CC(C)C)C(=O)N[C@@H](Cc1ccc(O)cc1)C(=O)CF [Cbz-LeuLeuTyr-CH2F] (Cbz-Leu-Leu-Tyr-CH2F) | inversely proportional to the inhibitor concentration | approximately 50% | – |
| – | – | – | – | no significant effect | – | – | CC(C)C[C@H](NC(=O)[C@H]1O[C@@H]1C(=O)O)C(=O)NCCCCN=C(N)N (relative stereo) [E-64, N-[N-(L-3-trans-carboxyoxirane-2-carbonyl)-L-leucyl]amino-4-guanidinobutane] | Almost no effect | – | – |
